Phosphorus/Metal data for 1 compound are collected here from patent US11000627B2, “Treatment of implants with phosphonic acid compounds” (Nano Bridging Molecules SA, priority 2016, dated 2021).

The nature of the data set: XPS phosphorus over metal ratio on ceramic dental implants. In kind it is physicochemical. Particulars: sonicated 70° C. 60 min, Metal = Al2s + Zr3d + Y3d. Here is the method: A ceramic dental implant (alumina toughened zirconia, yttria stabilized; length 11.0 mm, diameter 3.8 mm) was provided with a smooth surface. The dental implant was immersed in 50 ml of a 2% (v/v) aqueous solution of deconex 15 PF-x (which is a phosphate free, potassium hydroxide based standard cleaning agent). The solution was placed in an ultrasonic bath (output frequency 30 kHz) and sonicated at 70° C. for 15 min. This step was repeated a second time. The implant was removed from the cleaning agent solution and rinsed with water as follows: 2 times with 50 ml, swirling at room temperature; 3 times with 50 ml, sonicating for 2 min at 70° C. The implant was then placed into 15 ml of a 0.7 mM aqueous solution of 1,1,3,3-propane tetraphosphonic acid. The solution was placed in the ultrasonic bath and sonicated at 70° C. for 60 min. The implant was rinsed with water as follows: 1 time with 10 ml, swirling at room temperature; 2 times with 10 ml, sonicating for 2 min at 65° C.; 1 time with 10 ml, swirling at room temperature. The dental implant was dried in a desiccator over P2O5 and under vacuum (ca 20 mbar) for at least 3 hours.
Following the surface treatment with one phosphonic acid compound as described in Examples 1 to 7 the samples were analyzed by X-ray photoelectron spectroscopy (XPS). XPS analyses were performed on an Axis Ultra spectrometer from Kratos (Kratos, Manchester, U.K.) equipped with a concentric hemispherical analyzer and using a monochromatized aluminum anode X-ray source (Al Kα1,2 1486.6 eV, full width at half maximum, fwhm=0.85 eV, 15 kV, 150 W). The samples were investigated under ultrahigh vacuum conditions: 10^−8-10^−7 Pa. Spectra were taken at a 90° takeoff angle with respect to the surface. A sample area of 300×700 μm^2 or 700×700 μm^2 was analyzed with a pass energy of 80.0 eV for survey scans. The spectrometer was calibrated by using Cu 2p3/2 (932.7 eV) and Au 4f7/2 (84.0 eV) signals. Surface sensitivity factors used to determine the atomic concentrations were those of the instrument. Spectra were peak fitted after background subtraction by assuming a Gaussian/Lorentzian (90-70/10-30) peak shape. All peaks between 0 eV to 1200 eV were inspected.
The phosphorus over metal ratio (“Phosphorus/Metal”) was calculated dividing the % atomic concentration of phosphorus by the sum of the % atomic concentrations of all metals expected in the analyzed sample.
Four ceramic dental implants (alumina toughened zirconia, yttria stabilized; length 11.0 mm, diameter 3.8 mm) were provided with a smooth surface. The dental implants were immersed in 300 ml of a 2% (v/v) aqueous solution of deconex 15 PF-x (which is a phosphate free, potassium hydroxide based standard cleaning agent). […] The samples were analyzed by X-ray photoelectron spectroscopy (XPS). […]

With `O=P(O)(O)C(CC(P(=O)(O)O)P(=O)(O)O)P(=O)(O)O` [1,1,3,3-propane tetraphosphonic acid], the Phosphorus/Metal by setting is: (0.7 mM) 0.12; (2.5 mM) 0.12; (5 mM) 0.11; (10 mM) 0.12.
